# Assay results reported in publication PMC10392864, “Chukrasia tabularis limonoid plays anti-inflammatory role by regulating NF-κB signaling pathway in lipopolysaccharide-induced macrophages” (Food & Nutrition Research, 2023).
# Like-named read-outs stand apart in the source and are kept apart here.
# Key:
# [1] = system: LPS-induced NO production in RAW264.7 cells; assay: LPS-induced NO production in RAW264.7 cells (Griess reaction); type: cell-based; details: RAW264.7 cells, LPS 2 µg/mL, supernatant after 24 h, read-out: IC50, inhibitory activity on LPS-induced NO production in RAW264.7 cells
# Description: The inhibitory activities of compounds 1–16 on LPS stimulated macrophages was determined by Griess reaction. The NO content was detected by the NO kit according to the protocol described earlier ([23]). RAW264.7 cells obtained from the China Center for Cultivated Studies (Shanghai, China) were maintained in DMEM containing 10% FBS, and under 5% CO2 at 37°C. Briefly, the cells were seeded in a 96-well plate (1 × 10^5 cells/well), after 8 h of pre-incubation under 5% CO2 at 37°C, compounds 1–16 were added to the well plate, respectively, for 12 h. […] The supernatant of the cell culture were collected 24 h later.
# [2] = system: KB (oral epithelial) cells; assay: Cytotoxicity, SRB method, KB; type: cell-based, human
# Description: (§1) Huh-7 (hepatoma), MCF-7 (human breast), KB (oral epithelial), Hela (cervical), H460 (lung), A-549 (lung), and HepG2 (hepatocellular) cancer cell lines (provided by Shanghai Cell Bank) were maintained in RPMI 1640 at 37 ℃, supplemented with 10% FBS. Cytotoxicity was determined by the SRB method, with 5-fluorouracil (5-FU) as a positive control. The IC50 value was calculated using the GraphPad prism program.
# [3] = system: MCF-7 (human breast) cells; assay: Cytotoxicity, SRB method, MCF-7; type: cell-based
# Description: as §1
# [4] = system: Huh7, HepG2, KB, H460, Hela, A-549 and MCF-7 tumor cell lines; assay: Cytotoxicity, SRB method, statements on all seven tumor cell lines; type: cell-based, human; details: for cytotoxicity on seven tumor cell lines (in words): Huh7, HepG2, KB, H460, Hela, A-549, MCF-7; for IC50: all seven cell lines, SRB method, footnote of Table S3, read-out: IC50, cytotoxicity against all cell lines tested
# Description: The cytotoxicity of the separated compounds was assessed against seven tumor cell lines, Huh7, HepG2, KB, H460, Hela, A-549 and MCF-7 ([40], [41]).
# as §1
# [5] = system: A-549 (lung) cells; assay: Cytotoxicity, SRB method, A549; type: cell-based, human
# Description: as §1
# [6] = system: Huh-7 (hepatoma) cells; assay: Cytotoxicity, SRB method, Huh-7; type: cell-based, human
# Description: as §1
# [7] = system: H460 (lung) cells; assay: Cytotoxicity, SRB method, H460; type: cell-based, human
# Description: as §1
# [8] = system: HepG2 (hepatocellular) cells; assay: Cytotoxicity, SRB method, HepG2; type: cell-based, human
# Description: as §1
# [9] = system: Hela (cervical) cells; assay: Cytotoxicity, SRB method, Hela; type: cell-based, human
# Description: as §1
# [10] = Cytotoxicity, SRB method, KB; type: cell-based, human; details: human, KB (oral epithelial) cells
# Description: as §1
# [11] = Cytotoxicity, SRB method, MCF-7; type: cell-based, human; details: human, MCF-7 (human breast) cells
# Description: as §1
# [12] = Cytotoxicity, SRB method, A549; type: cell-based, human; details: human, A-549 (lung) cells
# Description: as §1
# [13] = Cytotoxicity, SRB method, Huh-7; type: cell-based, human; details: human, Huh-7 (hepatoma) cells
# Description: as §1
# [14] = Cytotoxicity, SRB method, H460; type: cell-based, human; details: human, H460 (lung) cells
# Description: as §1
# [15] = Cytotoxicity, SRB method, HepG2; type: cell-based, human; details: human, HepG2 (hepatocellular) cells
# Description: as §1
# [16] = Cytotoxicity, SRB method, Hela; type: cell-based, human; details: human, Hela (cervical) cells
# Description: as §1
# [17] = system: xylene-induced ear edema; assay: Ear edema induced by xylene in mice; type: in vivo; details: 200 mg/kg intragastric, 1 h before xylene, ears weighed 1 h after xylene
# Text: Male ICR mice (18–20 g) were provided by the Laboratory Animal Center, Fujian Medical University. […] One hour after xylene treatment, the mice were sacrificed by cervical dislocation. […] The weight difference of two plugs was used to measure the edema response (Table S1). Animal care and use complied with institutional guidelines, and the program was affirmed by the Experimental Animal Management Committee of Fujian Medical University.
compound,measurement,setting,value
"CO[C@@H]1O[C@@H]([C@H](O)C(C)(C)OC)C[C@H]1[C@@H]1CC[C@]2(C)C3=CC[C@H]4C(C)(C)C(=O)CC[C@]4(C)[C@H]3CC[C@@]12C [Compound 12, 21α, 25-dimethyl-melianodiol]",IC50,[1],13.9 ± 5.33 µM
"CC(C)(O)[C@@H](O)[C@H]1C[C@@H]([C@@H]2CC[C@]3(C)C4=CC[C@H]5C(C)(C)C(=O)CC[C@]5(C)[C@H]4CC[C@@]23C)[C@H](O)O1 [Compound 11, melianodiol]",IC50,[2],63.5 ± 8.25 µM
same,IC50,[3],52.6 ± 7.2 µM
same,cytotoxicity on seven tumor cell lines (in words),[4],potent inhibitory activities
same,IC50,[5],45.1 ± 6.33 µM
same,IC50,[6],79.8 ± 9.24 µM
same,IC50,[7],73.2 ± 10.5 µM
same,IC50,[1],13.3 ± 2.67 µM
same,IC50,[8],80 ± 5.26 µM
same,IC50,[9],86.3 ± 9.28 µM
"CO[C@H]1O[C@@H]([C@H](O)C(C)(C)OC)C[C@H]1[C@@H]1CC[C@]2(C)C3=CC[C@H]4C(C)(C)C(=O)CC[C@]4(C)[C@H]3CC[C@@]12C [Compound 13, 21β, 25-dimethylmelianodiol]",IC50,[1],24.9 ± 4.6 µM
"CC1(C)OC[C@H]([C@@H]2CC[C@]3(C)C4=CC[C@H]5C(C)(C)C(=O)CC[C@]5(C)[C@H]4CC[C@@]23C)C[C@@H](O)[C@@H]1O [Compound 16, hispidone]",IC50,[1],> 100 µM
21β-methoxy-25-ene-bitrinonediol [Compound 7],IC50,[2],40.9 ± 6.56 µM
same,IC50,[3],> 100 µM
same,cytotoxicity on seven tumor cell lines (in words),[4],moderate cytotoxicity
same,IC50,[5],> 100 µM
same,IC50,[6],94.7 ± 12.5 µM
same,IC50,[7],> 100 µM
same,IC50,[1],> 100 µM
same,IC50,[8],> 100 µM
same,IC50,[9],58.4 ± 9.09 µM
"CC(C)(O)C1OCC(C2CCC3(C)C4=CCC5C(C)(C)C(=O)CCC5(C)C4CCC23C)CC1O (stereo not shown) [Compound 6, bourjotinolone A]",IC50,[3],> 100 µM
same,cytotoxicity on seven tumor cell lines (in words),[4],potent inhibitory activities
same,IC50,[5],43.6 ± 10.6 µM
same,IC50,[6],29.6 ± 7.69 µM
same,IC50,[1],35.6 ± 4.29 µM
same,IC50,[8],59.3 ± 4.67 µM
same,IC50,[9],29.3 ± 7.11 µM
"COc1ccc2c(c1)c(CC(=O)O)c(C)n2C(=O)c1ccc(Cl)cc1 [Indomethacin, reference compound]",IC50,[1]; Mus musculus,26.2 ± 1.56 µM
"COC(=O)CC1C2(C)CC34OC5(C)OC6(C7CC(=O)OC(C8=CC(O)OC8=O)C7(C)CCC6(O5)C13C)C(OC(=O)C(C)C)C4(O)C2OC(=O)C(C)C (stereo not shown) [Compound 4, phragmalin, 22, 23-dihydro-23-hydroxy-21-oxo-3, 30-di-isobutyrates]",IC50,[4],> 100 µM
same,IC50,[1],21.9 ± 5.61 µM
"COC(=O)CC1C2(C)CC34OC5(C)OC6(C7CC(=O)OC(c8ccoc8)C7(C)CCC6(O5)C13C)C(OC(=O)C(C)C)C4(O)C2OC(=O)C(C)C (stereo not shown) [Compound 5, phragmalin, 3, 30-di-isobutyrates]",IC50,[2],> 100 µM
same,IC50,[3],> 100 µM
same,IC50,[5],> 100 µM
same,IC50,[6],> 100 µM
same,IC50,[7],> 100 µM
same,IC50,[1],35.6 ± 7.23 µM
same,IC50,[8],78 ± 12.7 µM
same,IC50,[9],> 100 µM
"C[C@@H](C[C@@H](O)[C@H](O)C(C)(C)O)[C@@H]1CC[C@]2(C)C3=CC[C@H]4C(C)(C)C(=O)CC[C@]4(C)[C@H]3CC[C@@]12C [Compound 15, piscidinol A]",IC50,[1],33.6 ± 4.77 µM
"CCC(=O)OC1C2(O)C(OC(=O)CC(C)C)C3(C)CC24OC2(C)OC15C1CC(=O)OC(C6=CC(O)OC6=O)C1(C)CCC5(O2)C4(C)C3CC(=O)OC (stereo not shown) [Compound 3, Chukrasin G]",IC50,[10],> 100 µM
same,IC50,[11],> 100 µM
same,IC50,[12],> 100 µM
same,IC50,[13],> 100 µM
same,IC50,[14],> 100 µM
same,IC50,[1]; Mus musculus,10.5 ± 0.98 µM
same,IC50,[15],99.4 ± 10.6 µM
same,IC50,[16],> 100 µM
21β- methylmelianodiol [Compound 9],IC50,[2],56.6 ± 8.3 µM
same,IC50,[3],> 100 µM
same,cytotoxicity on seven tumor cell lines (in words),[4],potent inhibitory activities
same,IC50,[5],66 ± 10.1 µM
same,IC50,[1],52.5 ± 8.98 µM
same,IC50,[8],44.3 ± 6 µM
same,IC50,[9],60 ± 4.19 µM
"3R, 23S, 24R, 25- tetraol- 7- glyoxiene [Compound 14]",IC50,[1],11.2 ± 1.12 µM
"C=C(C)C(O)C(O)CC(C)C1CCC2(C)C3=CCC4C(C)(C)C(=O)CCC4(C)C3CCC12C (stereo not shown) [Compound 8, (13a, 14b, 17a, 20S, 23R, 24R)-23, 24-dihydro-xylanosta-7, 25-dien-3-one]",IC50,[4],> 100 µM
same,IC50,[1],46.1 ± 6.11 µM
"24-hydroxyl-7, 25-dien-3-one [Compound 10]",IC50,[4],> 100 µM
same,IC50,[1],95.1 ± 9.4 µM
"COC(=O)CC1C2(C)CC34OC5(C)OC6(C7CC(=O)OC(C8=CC(=O)OC8O)C7(C)CCC6(O5)C13C)C(OC(=O)C(C)C)C4(O)C2OC(=O)C(C)C (stereo not shown) [Compound 1, Phragmalin A]",IC50,[1]; Mus musculus,10.3 ± 0.39 µM
"O=c1[nH]cc(F)c(=O)[nH]1 [5-Fluorouracil, 5-fluorouracil, reference compound]",IC50,[10],19.5 ± 1.24 µM
same,IC50,[11],23.4 ± 1.22 µM
same,IC50,[12],36.2 ± 1.73 µM
same,IC50,[13],36.2 ± 4.17 µM
same,IC50,[14],13.7 ± 2.85 µM
same,IC50,[15],30.5 ± 1.54 µM
same,IC50,[16],2.31 ± 0.98 µM
CC(=O)Oc1ccccc1C(=O)O [Aspirin],Edema Degree (±SD),[17],4.99 ± 0.30 mg
same,Inhibition Rate of ear edema,[17],36.30%
